Measurements published in patent US5028427A, “"Cephalosporin" compounds” (Beecham Group p.l.c., priority 1987, dated 1991).
Converted amounts (≈) assume the structure as drawn.

How the values were obtained:
Assay in all cases: MIC by serial dilution in nutrient agar
Assay type in all cases: cell-based
Enterobacter cloacae P99 = tested on: Enterobacter cloacae P99
Serratia marcescens US32 = conditions: Serratia marcescens US 32, nutrient agar (Oxoid), 10^4 colony forming units, overnight at 37° C.
[1] = tested on: Serratia marcescens HCN 3956; conditions: HCN3956, nutrient agar (Oxoid), 10^4 colony forming units, overnight at 37° C.
[2] = tested on: Pseudomonas aeruginosa NCTC 10662; conditions: NCTC10662, nutrient agar (Oxoid), 10^4 colony forming units, overnight at 37° C.
[3] = tested on: Staphylococcus aureus Oxford; conditions: nutrient agar (Oxoid), 10^4 colony forming units, overnight at 37° C.

SMILES | MIC (Enterobacter cloacae P99) [µg/mL] | MIC (Serratia marcescens US32) [µg/mL] | MIC [1] [µg/mL] | MIC [2] [µg/mL] | MIC [3] [µg/mL]
CCN1CCN(C(=O)NC(C(=O)NC2(NC=O)C(=O)N3C(C(=O)[O-])=C(C[n+]4ccccc4)CSC32)c2ccc(OC(C)=O)c(OC(C)=O)c2)C(=O)C1=O [Compound A, 7β-[D-2-(3,4-diacetoxyphenyl)-2-[(4-ethyl-2,3-dioxopiperazin-1-yl)carbonylamino]acetamido]-7α-formamido-3-(pyridinium)methyl-ceph-3-em-4-carboxylate] | 8 (≈ 10.6 µM) | 0.5 (≈ 0.665 µM) | 16 (≈ 21.3 µM) | 2 (≈ 2.66 µM) | 16 (≈ 21.3 µM)
CCN1CCN(C(=O)NC(C(=O)NC2(NC=O)C(=O)N3C(C(=O)[O-])=C(C[n+]4ccccc4)CSC32)c2ccc(O)c(O)c2)C(=O)C1=O [Example 1, 7β-[D-2-(3,4-Dihydroxyphenyl)-2-[(4-ethyl-2,3-dioxopiperazin-1-yl)carbonylamino]acetamido]-7α-formamido-3-(pyridinium)methyl-ceph-3-em-4-carboxylate] | 2 (≈ 3 µM) | 0.12 (≈ 0.18 µM) | 2 (≈ 3 µM) | 0.5 (≈ 0.749 µM) | 8 (≈ 12 µM)
